Common to all, as to assay: normalised viability (% of control), CellTiter-Blue; higher = more viable cells (about 100 = DMSO control)
What all share (conditions): incubation time: 72 h

The subject of one assay is CAL-148. In a few lines: (§1)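 384-well plates were pre-loaded with compound in 5 µl medium before 20 µl of breast cancer cell suspension was seeded. Following 72 h incubation, 2.5 µl CellTiter-Blue reagent was added for 2 h at 37 °C. Fluorescence was read at 560/590 nm and plates were normalised to vehicle (100) and a positive kill control (0), checked by Z'-factor. Normalised viability is reported at a single listed concentration of the series.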

For another assay, the system named is CAL-51. The method, boiled down: as §1
For a further assay, the system named is CAL-85-1. In a few lines:
as §1

A further assay deals with DU-4475. The method, boiled down: as §1
The subject of the next assay is HDQ-P1. The method, boiled down:
as §1

Another assay deals with MDA-MB-453. In a few lines: as §1

Several values for one entry are separate records, joined by “and”; a condition that tells them apart may be missing. Equal values may be shown once.

As for `CO[C@H](C(=O)[C@@H](O)[C@@H](C)O)[C@@H]1Cc2cc3cc(O[C@H]4C[C@@H](O[C@@H]5C[C@@H](O)[C@H](O)[C@@H](C)O5)[C@H](O)[C@@H](C)O4)c(C)c(O)c3c(O)c2C(=O)[C@H]1O[C@H]1C[C@@H](O[C@@H]2C[C@@H](O)[C@@H](O[C@@H]3C[C@](C)(O)[C@H](O)[C@@H](C)O3)[C@@H](C)O2)[C@H](O)[C@@H](C)O1` [Plicamycin] (1000 nM), the normalised viability was 2.42% and 2.71% in the assay on CAL-148; 4.92% and 5.48% in the assay with CAL-51; 6.52% and 5.6% in the assay with CAL-85-1; 0.92% and -0.07% in the assay on DU-4475; 32.4% and 21.1% with HDQ-P1; 8.78% and 7.08% in the assay on MDA-MB-453.

For the compound `C[C@]12C=CC(=O)C=C1CC[C@@H]1[C@@H]2C(=O)C[C@@]2(C)[C@H]1CC[C@]2(O)C(=O)CO` [Prednisone] (1000 nM), the normalised viability was 101% in the assay with CAL-148; 93.1% in the assay with CAL-51; 94.2% in the assay on CAL-85-1; 96.3% in the assay with DU-4475; 122% in the assay on HDQ-P1; 96.7% in the assay with MDA-MB-453.

As for `CO[C@H]1C[C@@H]2CC[C@@H](C)[C@@](O)(O2)C(=O)C(=O)N2CCCC[C@H]2C(=O)O[C@H]([C@H](C)C[C@@H]2CC[C@@H](O)[C@H](OC)C2)CC(=O)[C@H](C)/C=C(\C)[C@@H](O)[C@@H](OC)C(=O)[C@H](C)C[C@H](C)/C=C/C=C/C=C/1C` [Sirolimus] (100 nM), the normalised viability with CAL-148 turned out to be 48.1%; with CAL-51, 29.2%; in the assay on CAL-85-1, 52.6%; in the assay on DU-4475 it was 56.5%; in the assay on HDQ-P1, 70.6%; in the assay on MDA-MB-453, 27.9%.

For `CN1CCN(c2nc(C3=C(c4c[nH]c5ccccc45)C(=O)NC3=O)c3ccccc3n2)CC1` [Sotrastaurin] (1000 nM), the normalised viability was found to be 111% with CAL-148; 74.3% in the assay on CAL-51; 124% in the assay on CAL-85-1; 95.8% in the assay on DU-4475; 100% in the assay with HDQ-P1; 89.7% in the assay with MDA-MB-453.

On to `CC/C(=C(\c1ccccc1)c1ccc(OCCN(C)C)cc1)c1ccccc1` [Tamoxifen] (1000 nM), for which the normalised viability with CAL-148 was found to be 124%; in the assay on CAL-51 it was 78.4%; with CAL-85-1 it was 101%; with DU-4475 it was 112%; in the assay on HDQ-P1, 98.7%; in the assay on MDA-MB-453 it was 105%.

Take `COc1cc2c(N3CCN(C(=O)Nc4ccc(OC(C)C)cc4)CC3)ncnc2cc1OCCCN1CCCCC1` [Tandutinib] (100 nM): the normalised viability worked out at 101% in the assay with CAL-148; 107% in the assay on CAL-51; 100% in the assay on CAL-85-1; 117% in the assay with DU-4475; 112% in the assay on HDQ-P1; 97.6% in the assay with MDA-MB-453.

With `C[C@@H](C(=O)O)c1ccc(-c2ccccc2)c(F)c1` [Tarenflurbil] (1000 nM), the normalised viability with CAL-148 amounted to 92.5%; in the assay on CAL-51, 109%; in the assay with CAL-85-1, 90%; in the assay on DU-4475, 108%; in the assay on HDQ-P1 it was 83.2%; in the assay with MDA-MB-453, 87.7%.

For `Cn1nnc2c(C(N)=O)ncn2c1=O` [Temozolomide] (1000 nM), the normalised viability with CAL-148 stood at 113%; in the assay on CAL-51, 89.7%; in the assay on CAL-85-1, 104%; in the assay on DU-4475, 101%; with HDQ-P1, 100%; with MDA-MB-453, 93.6%.

In the case of `CC[C@@H]1C(=O)N(C)c2cnc(Nc3ccc(C(=O)N[C@H]4CC[C@H](N5CCN(CC6CC6)CC5)CC4)cc3OC)nc2N1C(C)C` [Volasertib] (100 nM), the normalised viability in the assay on CAL-148 was 23.4%; in the assay with CAL-51, 15.7%; in the assay on CAL-85-1, 42%; with DU-4475, 21%; with HDQ-P1, 51.7%; in the assay on MDA-MB-453 it was 24.5%.

For the origin of these results see the supplement of paper PMC4862054.
